This note sets out measurements from patent publication US11905294B2, “Imidazo[1,5-a]pyrazine derivatives as PI3Kδ inhibitors” (BEIGENE, LTD., priority 2017, dated 2024).

SMILES strings stand for the structures.

Assay type in all cases: biochemical
For experiment [1], the target named is PI3K (p110δ/p85α) (Homo sapiens, UniProt O00329). Kind of experiment: PI3Kδ assay (ADP-Glo Kinase Assay). Conditions: recombinant enzyme; IC50 (nM) or max inhibition (%) at 0.5 μM. As to the method: Compounds disclosed herein were tested for inhibition of PI3Kδ kinase activity using commercial ADP-Glo™ Kinase Assay (Promega Corporation) and following the manufacture's instruction. Briefly, recombinant PI3K (p110δ/p85α) enzyme, lipid kinase substrate and a serial dilution of compounds disclosed herein were incubated for 0.5 hr at room temperature. ATP was added to initiate the kinase reaction. After incubation for 1 hr at room temperature, ADP-Glo™ reagent was added to terminate the kinase reaction and deplete the remaining ATP. After incubation for 1 hr at room temperature, kinase detection reagent was added to simultaneously convert ADP to ATP and allow the newly synthesized ATP to be measured using a luciferase/luciferin reaction. After incubation for 0.5 hr at room temperature, the luminescence generated was measured on a PHERAstar FS plate reader (BMG LABTECH). The residual enzyme activity in presence of increasing concentrations of compounds was calculated based on the luminescence. The IC50 for each compound was derived from fitting the data to the four-parameter logistic equation by Graphpad Prism software.
Background: ADP-Glo first removes unused ATP, then detects ADP through luciferase.

In experiment [2] the target is PI3K (p110α/p85α) (Homo sapiens, UniProt P42336). Kind of experiment: PI3Kα assay (ADP-Glo Kinase Assay). Conditions: recombinant enzyme; IC50 (nM) or max inhibition (%) at 0.5 μM.
For experiment [3], the target named is PI3K (p110β/p85α) (Homo sapiens, UniProt P42338). Put plainly: PI3Kβ assay (ADP-Glo Kinase Assay). Conditions: read-out: Enzyme activity IC50 PI3Kβ.
The target in experiment [4] is PI3K (p110γ) (Homo sapiens, UniProt P48736). Put plainly: PI3Kγ assay (ADP-Glo Kinase Assay). The note with it: recombinant enzyme; IC50 (nM) or max inhibition (%) at 0.5 μM.
Sequence of PI3K (p110γ) (P48736 whole entry): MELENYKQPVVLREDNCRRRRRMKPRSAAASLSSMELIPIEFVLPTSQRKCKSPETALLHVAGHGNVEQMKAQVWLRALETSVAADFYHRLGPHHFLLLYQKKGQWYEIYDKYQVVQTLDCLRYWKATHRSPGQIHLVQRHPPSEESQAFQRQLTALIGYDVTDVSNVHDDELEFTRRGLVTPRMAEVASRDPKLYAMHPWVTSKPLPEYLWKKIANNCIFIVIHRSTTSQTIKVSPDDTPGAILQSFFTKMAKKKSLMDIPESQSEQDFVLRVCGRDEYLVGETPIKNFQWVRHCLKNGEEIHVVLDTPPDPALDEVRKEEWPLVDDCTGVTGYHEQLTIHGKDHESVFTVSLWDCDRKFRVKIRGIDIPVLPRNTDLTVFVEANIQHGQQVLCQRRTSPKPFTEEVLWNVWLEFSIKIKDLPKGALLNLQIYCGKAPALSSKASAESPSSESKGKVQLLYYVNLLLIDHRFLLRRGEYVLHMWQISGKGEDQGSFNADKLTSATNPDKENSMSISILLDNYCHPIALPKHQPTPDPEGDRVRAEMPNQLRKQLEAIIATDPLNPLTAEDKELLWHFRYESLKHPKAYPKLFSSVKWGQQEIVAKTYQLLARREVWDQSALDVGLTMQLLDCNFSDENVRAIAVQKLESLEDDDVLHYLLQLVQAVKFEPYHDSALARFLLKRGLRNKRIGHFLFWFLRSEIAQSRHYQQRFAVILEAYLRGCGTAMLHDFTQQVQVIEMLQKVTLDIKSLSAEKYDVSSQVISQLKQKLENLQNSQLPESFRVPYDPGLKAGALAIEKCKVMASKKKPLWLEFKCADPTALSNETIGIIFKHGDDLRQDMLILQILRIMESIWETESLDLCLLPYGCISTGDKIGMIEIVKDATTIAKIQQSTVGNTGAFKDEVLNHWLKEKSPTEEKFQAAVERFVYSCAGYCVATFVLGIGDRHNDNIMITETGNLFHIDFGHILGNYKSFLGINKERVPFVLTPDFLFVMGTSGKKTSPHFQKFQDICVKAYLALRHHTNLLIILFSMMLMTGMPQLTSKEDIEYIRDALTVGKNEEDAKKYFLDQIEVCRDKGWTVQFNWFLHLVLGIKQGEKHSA

Sequence of PI3K (p110δ/p85α) (O00329 whole entry): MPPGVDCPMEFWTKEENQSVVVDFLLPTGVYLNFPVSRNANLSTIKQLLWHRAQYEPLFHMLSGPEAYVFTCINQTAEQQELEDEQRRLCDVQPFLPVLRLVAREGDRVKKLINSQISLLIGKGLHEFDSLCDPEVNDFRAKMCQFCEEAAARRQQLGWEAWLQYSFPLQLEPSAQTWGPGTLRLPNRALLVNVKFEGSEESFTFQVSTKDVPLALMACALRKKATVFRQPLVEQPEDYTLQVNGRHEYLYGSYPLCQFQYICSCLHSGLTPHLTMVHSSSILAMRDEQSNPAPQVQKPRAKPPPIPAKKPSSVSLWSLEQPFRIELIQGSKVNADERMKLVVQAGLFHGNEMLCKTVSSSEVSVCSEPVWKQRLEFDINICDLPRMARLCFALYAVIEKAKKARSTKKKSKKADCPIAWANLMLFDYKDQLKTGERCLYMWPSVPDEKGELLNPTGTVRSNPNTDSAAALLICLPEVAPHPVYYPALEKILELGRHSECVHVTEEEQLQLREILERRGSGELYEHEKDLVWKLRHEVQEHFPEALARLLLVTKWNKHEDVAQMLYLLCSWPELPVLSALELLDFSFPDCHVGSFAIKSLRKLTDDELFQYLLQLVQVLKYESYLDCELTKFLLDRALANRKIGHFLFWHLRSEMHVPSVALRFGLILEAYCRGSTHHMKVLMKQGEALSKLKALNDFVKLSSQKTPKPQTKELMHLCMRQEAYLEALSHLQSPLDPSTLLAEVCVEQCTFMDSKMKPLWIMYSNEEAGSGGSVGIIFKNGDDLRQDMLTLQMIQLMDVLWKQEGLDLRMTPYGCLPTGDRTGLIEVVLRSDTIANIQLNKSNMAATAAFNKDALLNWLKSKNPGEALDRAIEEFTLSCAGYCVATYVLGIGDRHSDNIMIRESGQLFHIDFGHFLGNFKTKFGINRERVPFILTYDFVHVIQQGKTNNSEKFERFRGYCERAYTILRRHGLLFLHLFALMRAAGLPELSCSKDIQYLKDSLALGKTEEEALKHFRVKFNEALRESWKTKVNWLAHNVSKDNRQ
Sequence of PI3K (p110δ/p85α) (P27986 whole entry partner): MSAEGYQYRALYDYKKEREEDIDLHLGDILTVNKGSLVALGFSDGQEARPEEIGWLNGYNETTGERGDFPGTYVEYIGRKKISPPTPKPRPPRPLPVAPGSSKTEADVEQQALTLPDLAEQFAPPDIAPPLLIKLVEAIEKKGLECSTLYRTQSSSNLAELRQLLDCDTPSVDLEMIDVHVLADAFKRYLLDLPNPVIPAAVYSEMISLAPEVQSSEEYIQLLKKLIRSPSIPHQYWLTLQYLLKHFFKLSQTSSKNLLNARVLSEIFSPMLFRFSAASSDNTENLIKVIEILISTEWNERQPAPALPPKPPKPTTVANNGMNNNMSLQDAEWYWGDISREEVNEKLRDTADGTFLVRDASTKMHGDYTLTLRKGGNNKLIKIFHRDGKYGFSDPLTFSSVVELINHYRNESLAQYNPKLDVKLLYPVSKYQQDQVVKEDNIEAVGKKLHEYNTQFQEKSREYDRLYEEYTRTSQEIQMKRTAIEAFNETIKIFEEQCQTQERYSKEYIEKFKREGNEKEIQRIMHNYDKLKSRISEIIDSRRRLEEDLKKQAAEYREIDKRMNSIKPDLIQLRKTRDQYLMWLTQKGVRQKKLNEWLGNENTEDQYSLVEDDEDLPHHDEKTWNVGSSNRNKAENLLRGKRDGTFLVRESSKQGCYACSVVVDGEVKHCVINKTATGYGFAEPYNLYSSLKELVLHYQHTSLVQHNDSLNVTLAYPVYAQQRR
Sequence of PI3K (p110β/p85α) (P42338 whole entry): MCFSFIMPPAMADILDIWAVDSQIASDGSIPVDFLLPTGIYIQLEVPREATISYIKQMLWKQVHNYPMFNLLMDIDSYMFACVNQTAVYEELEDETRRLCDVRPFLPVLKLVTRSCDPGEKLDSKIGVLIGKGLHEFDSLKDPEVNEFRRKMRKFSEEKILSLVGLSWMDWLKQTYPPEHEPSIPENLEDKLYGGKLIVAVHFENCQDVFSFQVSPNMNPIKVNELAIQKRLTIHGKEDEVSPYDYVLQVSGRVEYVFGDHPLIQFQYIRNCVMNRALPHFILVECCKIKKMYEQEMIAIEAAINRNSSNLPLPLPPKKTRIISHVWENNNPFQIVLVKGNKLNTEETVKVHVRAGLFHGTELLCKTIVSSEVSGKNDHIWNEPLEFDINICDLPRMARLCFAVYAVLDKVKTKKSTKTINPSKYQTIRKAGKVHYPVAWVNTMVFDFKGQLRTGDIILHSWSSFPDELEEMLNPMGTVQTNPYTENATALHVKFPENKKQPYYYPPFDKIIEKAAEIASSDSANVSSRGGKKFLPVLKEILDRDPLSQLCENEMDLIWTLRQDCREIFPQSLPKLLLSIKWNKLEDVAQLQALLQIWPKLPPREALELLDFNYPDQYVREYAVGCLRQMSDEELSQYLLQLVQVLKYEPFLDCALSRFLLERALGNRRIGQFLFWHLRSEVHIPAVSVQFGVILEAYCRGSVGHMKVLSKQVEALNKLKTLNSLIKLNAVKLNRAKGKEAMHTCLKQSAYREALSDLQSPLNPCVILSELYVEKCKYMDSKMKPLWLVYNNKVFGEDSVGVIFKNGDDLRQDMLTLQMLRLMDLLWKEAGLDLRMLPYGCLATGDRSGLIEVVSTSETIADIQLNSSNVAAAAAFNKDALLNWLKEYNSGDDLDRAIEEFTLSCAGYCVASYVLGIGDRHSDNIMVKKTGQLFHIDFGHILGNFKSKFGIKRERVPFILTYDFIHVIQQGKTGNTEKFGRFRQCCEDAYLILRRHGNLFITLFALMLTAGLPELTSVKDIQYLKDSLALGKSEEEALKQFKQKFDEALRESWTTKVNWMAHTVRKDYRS
Sequence of PI3K (p110β/p85α) (P27986 whole entry partner): as the sequence (P27986 whole entry partner) above
Sequence of PI3K (p110α/p85α) (P42336 whole entry): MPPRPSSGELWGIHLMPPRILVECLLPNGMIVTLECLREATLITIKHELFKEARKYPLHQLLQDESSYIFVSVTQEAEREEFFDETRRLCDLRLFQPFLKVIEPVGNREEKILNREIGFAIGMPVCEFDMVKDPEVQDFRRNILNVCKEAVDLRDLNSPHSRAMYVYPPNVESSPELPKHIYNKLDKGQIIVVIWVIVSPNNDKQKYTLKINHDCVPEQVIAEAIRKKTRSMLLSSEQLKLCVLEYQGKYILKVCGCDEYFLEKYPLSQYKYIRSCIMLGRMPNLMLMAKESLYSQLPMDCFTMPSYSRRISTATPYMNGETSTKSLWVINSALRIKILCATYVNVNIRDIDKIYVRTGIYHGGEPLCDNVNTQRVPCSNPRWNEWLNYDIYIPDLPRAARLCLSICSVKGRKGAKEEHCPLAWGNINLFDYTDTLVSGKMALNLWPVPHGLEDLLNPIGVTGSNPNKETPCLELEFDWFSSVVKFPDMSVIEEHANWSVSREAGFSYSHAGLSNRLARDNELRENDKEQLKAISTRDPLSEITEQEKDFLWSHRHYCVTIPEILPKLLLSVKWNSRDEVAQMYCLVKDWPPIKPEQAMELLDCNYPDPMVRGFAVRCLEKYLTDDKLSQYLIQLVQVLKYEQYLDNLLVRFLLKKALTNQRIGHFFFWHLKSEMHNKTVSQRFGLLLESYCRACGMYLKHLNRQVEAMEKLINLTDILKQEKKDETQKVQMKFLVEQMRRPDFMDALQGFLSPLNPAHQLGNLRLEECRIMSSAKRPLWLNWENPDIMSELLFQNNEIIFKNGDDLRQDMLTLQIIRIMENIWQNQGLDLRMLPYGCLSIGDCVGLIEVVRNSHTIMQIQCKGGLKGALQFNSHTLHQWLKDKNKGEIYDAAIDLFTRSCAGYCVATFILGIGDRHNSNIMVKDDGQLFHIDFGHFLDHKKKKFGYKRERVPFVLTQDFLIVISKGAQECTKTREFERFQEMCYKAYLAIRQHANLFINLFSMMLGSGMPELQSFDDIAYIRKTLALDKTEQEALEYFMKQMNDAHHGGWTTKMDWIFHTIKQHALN
Sequence of PI3K (p110α/p85α) (P27986 whole entry partner): as the sequence (P27986 whole entry partner) above

As for `Cc1nc([C@@H](C)c2cc(Cl)c(F)c(C(=O)NC[C@@H]3CCOC3)c2OC(C)C)n2ccnc(N)c12` [Compound 35, 3-((S)-1-(8-amino-1-methylimidazo[1,5-a]pyrazin-3-yl)ethyl)-5-chloro-6-fluoro-2-isopropoxy-N-4(((S)-tetrahydrofuran-3-yl)methyl)benzamide], the IC50 (in general, the concentration needed to halve the response being measured) came out at 1.3 nM in experiment [1], 46000 nM in experiment [2], 19 µM in experiment [3] and 6000 nM in experiment [4].
For `COc1ccc([C@@H](C)NC(=O)c2c(F)c(Cl)cc([C@H](C)c3nc(C)c4c(N)nccn34)c2OC(C)C)cc1` [Compound 36, 3-((S)-1-(8-amino-1-methylimidazo[1,5-a]pyrazin-3-yl)ethyl)-5-chloro-6-fluoro-2-isopropoxy-N-((R)-1-(4-methoxyphenyl)ethyl)benzamide] the same measures were 2 nM, 9500 nM, 13 µM and 460 nM.
In the case of `Cc1nc([C@@H](C)c2cc(Cl)c(F)c(C(=O)N[C@H]3CCC[C@@H]3O)c2OC(C)C)n2ccnc(N)c12` [Compound 37, 3-((S)-1-(8-amino-1-methylimidazo[1,5-a]pyrazin-3-yl)ethyl)-5-chloro-6-fluoro-2-isopropoxy-N-((1S,2S)-2-hydroxycyclopentyl)benzamide], the IC50 in experiment [1] is 0.56 nM; in experiment [2] it was 11000 nM; in experiment [3], 11 µM; in experiment [4], 2500 nM.
For `Cc1nc([C@@H](C)c2cc(Cl)c(F)c(C(=O)N[C@]3(C)C[C@H](O)C3)c2OC(C)C)n2ccnc(N)c12` [Compound 38, 3-((S)-1-(8-amino-1-methylimidazo[1,5-a]pyrazin-3-yl)ethyl)-5-chloro-6-fluoro-2-isopropoxy-N-((1S,3R)-3-hydroxy-1-methylcyclobutyl)benzamide] the same measures were 1.4 nM, 6100 nM, 25 µM and 3200 nM.
As for `Cc1nc([C@@H](C)c2cc(Cl)c(F)c(C(=O)N[C@]3(C)C[C@@H](O)C3)c2OC(C)C)n2ccnc(N)c12` [Compound 39, 3-((S)-1-(8-amino-1-methylimidazo[1,5-a]pyrazin-3-yl)ethyl)-5-chloro-6-fluoro-N-((1r,3S)-3-hydroxy-1-methylcyclobutyl)-2-isopropoxybenzamide], the IC50 in experiment [1] amounted to 0.9 nM; in experiment [2], 10000 nM; in experiment [3], 2.3 µM; in experiment [4] it was 28000 nM.
As for `CCCNC(=O)c1c(F)c(Cl)cc([C@H](C)c2nc(C)c3c(N)nccn23)c1OC(C)C` [Compound 41, (S)-3-(1-(8-amino-1-methylimidazo[1,5-a]pyrazin-3-yl)ethyl)-5-chloro-6-fluoro-2-isopropoxy-N-propylbenzamide], the IC50 in experiment [1] was found to be 0.99 nM; in experiment [2], 20000 nM; in experiment [3] it was 4.9 µM; in experiment [4], 5500 nM.
Take `Cc1nc([C@@H](C)c2cc(Cl)c(F)c(C(=O)NCC3CC3)c2OC(C)C)n2ccnc(N)c12` [Compound 42, (S)-3-(1-(8-amino-1-methylimidazo[1,5-a]pyrazin-3-yl)ethyl)-5-chloro-N-(cyclopropylmethyl)-6-fluoro-2-isopropoxybenzamide]: the IC50 worked out at 1.2 nM in experiment [1], 36000 nM in experiment [2], 21 µM in experiment [3] and 4800 nM in experiment [4].
As for `Cc1nc([C@@H](C)c2cc(Cl)c(F)c(C(=O)N3C[C@H](C)O[C@@H](C)C3)c2OC(C)C)n2ccnc(N)c12` [Compound 43, (3-((S)-1-(8-amino-1-methylimidazo[1,5-a]pyrazin-3-yl)ethyl)-5-chloro-6-fluoro-2-isopropoxyphenyl)((2S,6S)-2,6-dimethylmorpholino)methanone], the IC50 in experiment [1] is 2.2 nM; in experiment [2] it was 21000 nM; in experiment [3], above 50 µM; in experiment [4], 3400 nM.
For `Cc1nc([C@@H](C)c2cc(Cl)c(F)c(C(=O)N[C@@H]3CCCOC3)c2OC(C)C)n2ccnc(N)c12` [Compound 44, 3-((S)-1-(8-amino-1-methylimidazo[1,5-a]pyrazin-3-yl)ethyl)-5-chloro-6-fluoro-2-isopropoxy-N-((R)-tetrahydro-2H-pyran-3-yl)benzamide] the same measures were 0.74 nM, 20000 nM, 30 µM and 5000 nM.
As for `Cc1nc([C@@H](C)c2cc(Cl)c(F)c(C(=O)N[C@H]3CCCOC3)c2OC(C)C)n2ccnc(N)c12` [Compound 45, 3-((S)-1-(8-amino-1-methylimidazol[1,5-a]pyrazin-3-yl)ethyl)-5-chloro-6-fluoro-2-isopropoxy-N-((S)-tetrahydro-2H-pyran-3-yl)benzamide], the IC50 amounted to 1.1 nM in experiment [1], 16000 nM in experiment [2], 32 µM in experiment [3] and 2800 nM in experiment [4].
Consider `Cc1nc([C@@H](C)c2cc(Cl)c(F)c(C(=O)N[C@H]3CCCC[C@@H]3O)c2OC(C)C)n2ccnc(N)c12` [Compound 46, 3((S)-1-(8-amino-1-methylimidazo[1,5-a]pyrazin-3-yl)ethyl)-5-chloro-6-fluoro-N-((1S,2S)-2-hydroxycyclohexyl)-2-isopropoxybenzamide], for which the IC50 in experiment [1] was 0.94 nM; in experiment [2], 9700 nM; in experiment [3] it was 39 µM; in experiment [4], 2100 nM.
For `Cc1nc([C@@H](C)c2cc(Cl)c(F)c(C(=O)N[C@H]3CCCC[C@H]3O)c2OC(C)C)n2ccnc(N)c12` [Compound 47, 3-((S)-1-(8-amino-1-methylimidazo[1,5-a]pyrazin-3-yl)ethyl)-5-chloro-6-fluoro-N-((1S,2R)-2-hydroxycyclohexyl)-2-isopropoxybenzamide] the same measures were 2.5 nM, 27000 nM, 26 µM and 5800 nM.
For the compound `Cc1nc([C@@H](C)c2cc(Cl)c(F)c(C(=O)NCC3CCCOC3)c2OC(C)C)n2ccnc(N)c12` (stereo partly drawn) [Compound 50, 3-((S)-1-(8-amino-1-methylimidazo[1,5-a]pyrazin-3-yl)ethyl)-5-chloro-6-fluoro-2-isopropoxy-N-((tetrahydro-2H-pyran-3-yl)methyl)benzamide], the IC50 in experiment [1] turned out to be 1.2 nM; in experiment [2] it was 15000 nM; in experiment [3], 20 µM; in experiment [4], 6100 nM.
The corresponding values for `Cc1nc([C@@H](C)c2cc(Cl)c(F)c(C(=O)NCC3CCOCC3)c2OC(C)C)n2ccnc(N)c12` [Compound 51, (S)-3-(1-(8-amino-1-methylimidazo[1,5-a]pyrazin-3-yl)ethyl)-5-chloro-6-fluoro-2-isopropoxy-N-((tetrahydro-2H-pyran-4-yl)methyl)benzamide] are 0.97 nM, 27000 nM, 6.4 µM and 4500 nM.
With `Cc1nc([C@@H](C)c2cc(Cl)c(F)c(C(=O)N3CC4CCC(C3)O4)c2OC(C)C)n2ccnc(N)c12` [Compound 52, (3-((S)-1-(8-amino-1-methylimidazo[1,5-a]pyrazin-3-yl)ethyl)-5-chloro-6-fluoro-2-isopropoxyphenyl)(8-oxa-3-azabicyclo[3.2.1]octan-3-yl)methanone], the IC50 in experiment [1] was found to be 1.4 nM; in experiment [2], 10000 nM; in experiment [3] it was 40 µM; in experiment [4], 2500 nM.
Consider `Cc1nc([C@@H](C)c2cc(Cl)c(F)c(C(=O)N[C@@H]3CC[C@@H](O)C3)c2OC(C)C)n2ccnc(N)c12` [Compound 53, 3-((S)-1-(8-amino-1-methylimidazo[1,5-a]pyrazin-3-yl)ethyl)-5-chloro-6-fluoro-N-((1R,3R)-3-hydroxycyclopentyl)-2-isopropoxybenzamide], for which the IC50 in experiment [1] is 0.68 nM; in experiment [2], 14000 nM; in experiment [3], 11 µM; in experiment [4] it was 2400 nM.
On to `Cc1nc([C@@H](C)c2cc(Cl)c(F)c(C(=O)NCC3(O)COC3)c2OC(C)C)n2ccnc(N)c12` [Compound 55, (S)-3-(1-(8-amino-1-methylimidazo[1,5-a]pyrazin-3-yl)ethyl)-5-chloro-6-fluoro-N-((3-hydroxyoxetan-3-yl)methyl)-2-isopropoxybenzamide], for which the IC50 was 1.8 nM in experiment [1], 13000 nM in experiment [2], 11 µM in experiment [3] and 2200 nM in experiment [4].
Turning to `Cc1nc([C@@H](C)c2cc(Cl)c(F)c(C(=O)NC3(CN4CCN(CC5CC5)CC4)CC3)c2OC(C)C)n2ccnc(N)c12` [Compound 56, (S)-3-(1-(8-amino-1-methylimidazo[1,5-a]pyrazin-3-yl)ethyl)-5-chloro-N-(1-((4-(cyclopropylmethyl)piperazin-1-yl)methyl)cyclopropyl)-6-fluoro-2-isopropoxybenzamide], the IC50 in experiment [1] was found to be 1.9 nM; in experiment [2], 28000 nM; in experiment [3], 44 µM; in experiment [4] it was 4500 nM.
Turning to `Cc1nc([C@@H](C)c2cc(Cl)c(F)c(C(=O)NC[C@H](C)O)c2OC(C)C)n2ccnc(N)c12` [Compound 57, 3-((S)-1-(8-amino-1-methylimidazo[1,5-a]pyrazin-3-yl)ethyl)-5-chloro-6-fluoro-N-((S)-2-hydroxypropyl)-2-isopropoxybenzamide], the IC50 in experiment [1] is 1.1 nM; in experiment [2] it was 18000 nM; in experiment [3], 12 µM; in experiment [4], 4900 nM.
